Biological target: T1, CDK2/CyclinE (Homo sapiens, UniProt P24941)
T1 construct: GST; purchased ProQinase GmbH (Freiburg, Germany); host or cells: insect cells (Sf9)
Test: CDK2/CycE kinase assay (TR-FRET)
Format: biochemical
Conditions: 2 mM ATP (high ATP); median; read-out: CDK2/CyclinE, 2 mM ATP (high ATP) IC50 - [mol/l] (median)
Text: 2.4 CDK2/CycE Kinase Assay
CDK2/CycE-inhibitory activity of compounds of the present invention was quantified employing the CDK2/CycE TR-FRET assay as described in the following paragraphs.
Recombinant fusion proteins of GST and human CDK2 and of GST and human CycE, expressed in insect cells (Sf9) and purified by Glutathion-Sepharose affinity chromatography, were purchased from ProQinase GmbH (Freiburg, Germany). As substrate for the kinase reaction biotinylated peptide biotin-Ttds-YISPLKSPYKISEG (C-terminus in amid form) was used which can be purchased e.g. form the company JERINI peptide technologies (Berlin, Germany).
For the assay 50 nanoL of a 100 fold concentrated solution of the test compound in DMSO was pipetted into a black low volume 384 well microtiter plate or a black 1536 well microtiter plate (both Greiner Bio-One, Frickenhausen, Germany), 2 microL of a solution of CDK2/CycE in aqueous assay buffer [50 millimol/L Tris/HCl pH 8.0, 10 millimol/L MgCl2, 1.0 millimol/L dithiothreitol, 0.1 millimol/L sodium ortho-vanadate, 0.01% (v/v) Nonidet-P40 (Sigma)] were added and the mixture was incubated for 15 min at 22° C. to allow pre-binding of the test compounds to the enzyme before the start of the kinase reaction. Then the kinase reaction was started by the addition of 3 microL of a solution of adenosine-tri-phosphate (ATP, 3.33 millimol/L=>final conc. in the 5 microL assay volume is 2 millimol/L) and substrate (1.25 micromol/L=>final conc. in the 5 microL assay volume is 0.75 micromol/L) in assay buffer and the resulting mixture was incubated for a reaction time of 25 min at 22° C. The concentration of CDK2/CycE was adjusted depending of the activity of the enzyme lot and was chosen appropriate to have the assay in the linear range, typical concentrations were in the range of 10 ng/mL. The reaction was stopped by the addition of 3 microL of a solution of TR-FRET detection reagents (0.333 micromol/L streptavidine-XL665 [Cisbio Bioassays, Codolet, France] and 1.67 nanomol/L anti-RB(pSer807/pSer811)-antibody from BD Pharmingen [#558389] and 2 nanomol/L LANCE EU-W1024 labeled anti-mouse IgG antibody [Perkin-Elmer, product no. AD0077, as an alternative a Terbium-cryptate-labeled anti-mouse IgG antibody from Cisbio Bioassays can be used]) in an aqueous EDTA-solution (167 millimol/L EDTA, 0.2% (w/v) bovine serum albumin in 100 millimol/L HEPES pH 7.5).
The resulting mixture was incubated 1 h at 22° C. to allow the formation of complex between the phosphorylated biotinylated peptide and the detection reagents. Subsequently the amount of phosphorylated substrate was evaluated by measurement of the resonance energy transfer from the Eu-chelate to the streptavidine-XL. Therefore, the fluorescence emissions at 620 nm and 665 nm after excitation at 350 nm was measured in a TR-FRET reader, e.g. a Pherastar (BMG Labtechnologies, Offenburg, Germany) or a Viewlux (Perkin-Elmer). The ratio of the emissions at 665 nm and at […] was taken as the measure for the amount of phosphorylated substrate. The data were normalised (enzyme reaction without inhibitor=0% inhibition, all other assay components but no enzyme=100% inhibition).

IC50 [µM] | Compound
> 20 | CN1CCCC(n2nc(NCc3nc4ccccc4[nH]3)c3ncc(C4CC4)nc32)CC1 (racemic) [Example 34, (±)-N-[(1H-benzimidazol-2-yl)methyl]-6-cyclopropyl-1-(1-methylazepan-4-yl)-1H-pyrazolo[3,4-b]pyrazin-3-amine]
> 20 | CN1CCC(n2nc(NCc3nc4ccccc4[nH]3)c3ncc(C4CC4)nc32)C1 (racemic) [Example 35, (±)-N-[(1H-benzimidazol-2-yl)methyl]-6-cyclopropyl-1-(1-methylpyrrolidin-3-yl)-1H-pyrazolo[3,4-b]pyrazin-3-amine]
> 20 | COCCC(C)n1nc(NCc2nc3ccccc3[nH]2)c2ncc(C3CC3)nc21 (racemic) [Example 57, (±)-N-[(1H-benzimidazol-2-yl)methyl]-6-cyclopropyl-1-(4-methoxybutan-2-yl)-1H-pyrazolo[3,4-b]pyrazin-3-amine]
> 20 | CC(CCN(C)C)n1nc(NCc2nc3ccccc3[nH]2)c2ncc(C3CC3)nc21 (racemic) [Example 62, (±)-N-[(1H-benzimidazol-2-yl)methyl]-6-cyclopropyl-1-[4-(dimethylamino)butan-2-yl]-1H-pyrazolo[3,4-b]pyrazin-3-amine]
> 20 | c1ccc2[nH]c(CNc3nn(C4CCOC4)c4nc(C5CC5)cnc34)nc2c1 (single isomer, unassigned) [Example 17, (+) or (−)-N-[(1H-benzimidazol-2-yl)methyl]-6-cyclopropyl-1-(oxolan-3-yl)-1H-pyrazolo[3,4-b]pyrazin-3-amine]
> 20 | c1ccc2[nH]c(CNc3nn(C4CCOC4)c4nc(C5CC5)cnc34)nc2c1 (single isomer, unassigned) [Example 18, (-) or (+) -N-[(1H-benzimidazol-2-yl)methyl]-6-cyclopropyl-1-[oxolan-3-yl]-1H-pyrazolo[3,4-b]pyrazin-3-amine]
> 20 | CN1CCCC(n2nc(NCc3nc4ccccc4[nH]3)c3ncc(C4CC4)nc32)CC1 (single isomer, unassigned) [Example 38, (−) or (+)-N-[(1H-benzimidazol-2-yl)methyl]-6-cyclopropyl-1-[(4R*)-1-methylazepan-4-yl]-1H-pyrazolo[3,4-b]pyrazin-3-amine]
> 20 | CC(CCN(C)C)n1nc(NCc2nc3ccccc3[nH]2)c2ncc(C3CC3)nc21 (single isomer, unassigned) [Example 63, (+) or (−)-N-[(1H-benzimidazol-2-yl)methyl]-6-cyclopropyl-1-[4-(dimethylamino)butan-2-yl]-1H-pyrazolo[3,4-b]pyrazin-3-amine]
> 20 | CC(CCN(C)C)n1nc(NCc2nc3ccccc3[nH]2)c2ncc(C3CC3)nc21 (single isomer, unassigned) [Example 64, (−) or(+)-N-[(1H-benzimidazol-2-yl)methyl]-6-cyclopropyl-1-[4-(dimethylamino)butan-2-yl]-1H-pyrazolo[3,4-b]pyrazin-3-amine]
> 20 | CN1CCC(n2nc(NCc3nc4ccccc4[nH]3)c3ncc(C4CC4)nc32)C1 (single isomer, unassigned) [Example 78, (+) or (−)-N-[(1H-benzimidazol-2-yl)methyl]-6-cyclopropyl-1-(1-methylpyrrolidin-3-yl)-1H-pyrazolo[3,4-b]pyrazin-3-amine]
> 20 | CN1CCC(n2nc(NCc3nc4ccccc4[nH]3)c3ncc(C4CC4)nc32)C1 (single isomer, unassigned) [Example 79, (−) or (+)-N-[(1H-benzimidazol-2-yl)methyl]-6-cyclopropyl-1-(1-methylpyrrolidin-3-yl)-1H-pyrazolo[3,4-b]pyrazin-3-amine]
> 20 | CN1CCC(n2nc(NCc3nc4c(F)c(F)ccc4[nH]3)c3ncc(C4CC4)nc32)CC1 [Example 9, 6-cyclopropyl-N-[(4,5-difluoro-1H-benzimidazol-2-yl)methyl]-1-(1-methylpiperidin-4-yl)-1H-pyrazolo[3,4-b]pyrazin-3-amine]
> 20 | CC(C)(C)OC(=O)N1CCC(n2nc(NCc3nc4ccccc4[nH]3)c3ncc(C4CC4)nc32)CC1 [Example 11, tert-butyl 4-(3-{[(1H-benzimidazol-2-yl)methyl]amino}-6-cyclopropyl-1H-pyrazolo[3,4-b]pyrazin-1-yl)piperidine-1-carboxylate]
> 20 | CC(C)n1nc(NCc2nc3ccccc3[nH]2)c2ncc(C3CC3)nc21 [Example 14, N-[(1H-benzimidazol-2-yl)methyl]-6-cyclopropyl-1-(propan-2-yl)-1H-pyrazolo[3,4-b]pyrazin-3-amine]
> 20 | Cn1nc(NCc2nc3ccccc3[nH]2)c2ncc(C3CC3)nc21 [Example 15, N-[(1H-benzimidazol-2-yl)methyl]-6-cyclopropyl-1-methyl-1H-pyrazolo[3,4-b]pyrazin-3-amine]
> 20 | CN1CCC(n2nc(NCc3nc4c(Br)cccc4[nH]3)c3ncc(C4CC4)nc32)CC1 [Example 20, N-[(4-bromo-1H-benzimidazol-2-yl)methyl]-6-cyclopropyl-1-(1-methylpiperidin-4-yl)-1H-pyrazolo[3,4-b]pyrazin-3-amine]
> 20 | Cc1c(Cl)ccc2[nH]c(CNc3nn(C4CCN(C)CC4)c4nc(C5CC5)cnc34)nc12 [Example 21, N-[(5-chloro-4-methyl-1H-benzimidazol-2-yl)methyl]-6-cyclopropyl-1-(1-methylpiperidin-4-yl)-1H-pyrazolo[3,4-b]pyrazin-3-amine]
> 20 | CN1CCC(n2nc(NCc3nc4cc(Cl)ccc4[nH]3)c3ncc(C4CC4)nc32)CC1 [Example 22, N-[(5-chloro-1H-benzimidazol-2-yl)methyl]-6-cyclopropyl-1-(1-methylpiperidin-4-yl)-1H-pyrazolo[3,4-b]pyrazin-3-amine]
16.4 | Fc1cccc2[nH]c(CNc3nn(C4CCOCC4)c4nc(C5CC5)cnc34)nc12 [Example 23, 6-cyclopropyl-N-[(4-fluoro-1H-benzimidazol-2-yl)methyl]-1-(oxan-4-yl)-1H-pyrazolo[3,4-b]pyrazin-3-amine]
> 20 | Cc1c(F)ccc2[nH]c(CNc3nn(C4CCN(C)CC4)c4nc(C5CC5)cnc34)nc12 [Example 26, 6-cyclopropyl-N-[(5-fluoro-4-methyl-1H-benzimidazol-2-yl)methyl]-1-(1-methylpiperidin-4-yl)-1H-pyrazolo[3,4-b]pyrazin-3-amine]
> 20 | CN1CCC(n2nc(NCc3nc4cc(SC(F)(F)F)ccc4[nH]3)c3ncc(C4CC4)nc32)CC1 [Example 27, 6-cyclopropyl-1-(1-methylpiperidin-4-yl)-N-({5-[(trifluoromethyl)sulfanyl]-1H-benzimidazol-2-yl}methyl)-1H-pyrazolo[3,4-b]pyrazin-3-amine]
> 20 | Cc1ccc2[nH]c(CNc3nn(C4CCN(C)CC4)c4nc(C5CC5)cnc34)nc2c1C [Example 28, 6-cyclopropyl-N-[(4,5-dimethyl-1H-benzimidazol-2-yl)methyl]-1-(1-methylpiperidin-4-yl)-1H-pyrazolo[3,4-b]pyrazin-3-amine]
> 20 | CN1CCC(n2nc(NCc3nc4cc(Cl)c(F)cc4[nH]3)c3ncc(C4CC4)nc32)CC1 [Example 29, N-[(5-chloro-6-fluoro-1H-benzimidazol-2-yl)methyl]-6-cyclopropyl-1-(1-methylpiperidin-4-yl)-1H-pyrazolo[3,4-b]pyrazin-3-amine]
> 20 | CN1CCC(n2nc(NCc3nc4cc(F)c(F)cc4[nH]3)c3ncc(C4CC4)nc32)CC1 [Example 30, 6-cyclopropyl-N-[(5,6-difluoro-1H-benzimidazol-2-yl)methyl]-1-(1-methylpiperidin-4-yl)-1H-pyrazolo[3,4-b]pyrazin-3-amine]
> 20 | CN1CCC(n2nc(NCc3nc4c(Cl)c(F)ccc4[nH]3)c3ncc(C4CC4)nc32)CC1 [Example 31, N-[(4-chloro-5-fluoro-1H-benzimidazol-2-yl)methyl]-6-cyclopropyl-1-(1-methylpiperidin-4-yl)-1H-pyrazolo[3,4-b]pyrazin-3-amine]

— patent publication US20230192700A1, “PYRAZOLOPYRAZINES ACTING ON CANCERS VIA INHIBITION OF CDK12” (Bayer Aktiengesellschaft, priority 2020, published 2023)
